What is called pKi is −log10 of the Ki, conventionally taken in molar units.

Molecules are shown by their SMILES. pKi: −log10 of the molar value. Where a name gives a salt, the structure may show the parent alone.

T1 sequence (P09483 31-630): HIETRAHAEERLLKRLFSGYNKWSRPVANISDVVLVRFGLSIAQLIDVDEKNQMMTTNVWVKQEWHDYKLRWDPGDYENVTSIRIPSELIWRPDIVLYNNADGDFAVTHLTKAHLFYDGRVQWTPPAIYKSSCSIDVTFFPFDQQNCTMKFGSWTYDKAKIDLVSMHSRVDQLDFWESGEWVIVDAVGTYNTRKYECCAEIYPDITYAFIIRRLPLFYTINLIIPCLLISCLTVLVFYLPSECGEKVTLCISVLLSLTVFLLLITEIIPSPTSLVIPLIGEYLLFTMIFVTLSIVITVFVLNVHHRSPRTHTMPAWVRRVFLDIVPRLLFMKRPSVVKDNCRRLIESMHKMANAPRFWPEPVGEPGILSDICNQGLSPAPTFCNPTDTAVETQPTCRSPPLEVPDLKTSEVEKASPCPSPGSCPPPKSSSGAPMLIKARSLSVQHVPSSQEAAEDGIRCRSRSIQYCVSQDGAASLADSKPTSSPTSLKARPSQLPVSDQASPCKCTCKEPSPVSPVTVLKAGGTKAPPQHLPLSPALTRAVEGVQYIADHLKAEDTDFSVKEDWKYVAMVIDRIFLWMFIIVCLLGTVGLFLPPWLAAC
T1 sequence (P12390 25-500): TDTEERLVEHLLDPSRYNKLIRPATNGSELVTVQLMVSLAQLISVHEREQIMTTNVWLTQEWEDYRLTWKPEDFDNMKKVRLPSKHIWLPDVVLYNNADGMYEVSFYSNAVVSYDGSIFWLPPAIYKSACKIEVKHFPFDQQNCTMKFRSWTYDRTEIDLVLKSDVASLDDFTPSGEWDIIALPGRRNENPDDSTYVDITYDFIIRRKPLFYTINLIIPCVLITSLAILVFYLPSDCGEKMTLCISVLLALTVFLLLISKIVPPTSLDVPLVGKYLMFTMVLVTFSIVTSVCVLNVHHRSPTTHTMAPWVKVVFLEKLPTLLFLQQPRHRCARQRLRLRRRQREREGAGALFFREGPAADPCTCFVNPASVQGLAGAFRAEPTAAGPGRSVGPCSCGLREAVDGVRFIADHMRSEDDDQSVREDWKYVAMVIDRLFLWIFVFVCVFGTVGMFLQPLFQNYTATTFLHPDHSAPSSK

One assay concerns the target T1, neuronal nicotinic acetylcholine receptors (Rattus norvegicus, UniProt P09483+P12390).
T1 construct: crude synaptic membrane preparations from whole rat brain; from tissue; host or cells: whole rat brain, crude synaptic membranes
Briefly: Binding of [3H]-cytisine to neuronal nicotinic acetylcholine receptors, crude synaptic membranes from whole rat brain.
Conditions: not given
The procedure:
The In Vitro protocols for determination of nicotinic acetylcholine channel receptor binding potencies of ligands were determined as follows.
Binding of [^3H]-cytisine ([^3 H]-CYT) to neuronal nicotinic acetylcholine receptors was accomplished using crude synaptic membrane preparations from whole rat brain (Pabreza et al., Molecular Pharmacol., 1990, 39:9). Washed membranes were stored at —80° C. prior to use. Frozen aliquots were slowly thawed and resuspended in 20 volumes of buffer (containing: 120 mM NaCl, 5 mM KCl, 2 mM MgCl2, 2 mM CaCl2 and 50 mM Tris-Cl, pH 7.4 @4° C.). After centrifuging at 20,000×g for 15 minutes, the pellets were resuspended in 30 volumes of buffer.
The test compounds were dissolved in water to make 10 mM stock solutions. Each solution was then diluted (1:100) with buffer (as above) and further taken through seven serial log dilutions of produce test solution from 10^−5 to 10^−11 M.
Homogenate (containing 125-150 μg protein) was added to triplicate tubes containing the range of concentrations of test compound described above and [^3H]-CYT (1.25 nM) in a final volume of 500 μL. Samples were incubated for 60 minutes at 4° C., then rapidly filtered through Whatman GF/B filters presoaked in 0.5% polyethyleneimine using 3×4 mL of ice-cold buffer. The filter are counted in 4 mL of Ecolume® (ICN). Nonspecific binding was determined in the presence of 10 μM (−)-nicotine and values were expressed as a percentage of total binding. IC50 values were determined with the RS-1 (BBN) nonlinear least squares curve-fitting program and IC50 values were converted to Ki values using the Cheng and Prusoff correction ([…].
`CN(C)[C@@H]1CCN(c2ccc(Cl)nc2)C1` [Example 6, N-[(3R)-1-(6-chloro-3-pyridinyl)pyrrolidinyl]-N,N-dimethylamine 4-methylbenzenesulfonate] had a pKi of 7.00.

`N[C@@H]1CCN(c2cncc(C(F)(F)F)c2)C1` [Example 11, (3R)-1-[5-(trifluoromethyl)-3-pyridinyl]pyrrolidinylamine dihydrochloride] gave a pKi of 8.52.

Turning to `CN[C@@H]1CCCN(c2cccnc2)C1` [Example 44, N-methyl-N-[(3R)-1-(3-pyridinyl)piperidinyl]amine dihydrochloride], the pKi was 6.69.

With `N[C@H]1CCN(c2cncc(C(F)(F)F)c2)C1` [Example 13, (3S)-1-[5-(trifluoromethyl)-3-pyridinyl]pyrrolidinylamine dihydrochloride], the pKi was 9.00.

In the case of `NC1CCN(c2cccnc2)C1` (centres unmarked) [Example 10, 1-(3-pyridinyl)-3-pyrrolidinylamine bis(4-methylbenzenesulfonate)], the pKi was 9.82.

Regarding `N[C@@H]1CCN(c2cccnc2)[C@@H]1CCl` [Example 51, (2S,3R)-2-(chloromethyl)-1-(3-pyridinyl)pyrrolidinylamine dihydrochloride], the pKi is 6.15.

Turning to `CN[C@@H]1CCN(c2cnc(F)c(C)c2)C1` [Example 28, N-[(3R)-1-(6-fluoro-5-methyl-3-pyridinyl)pyrrolidinyl]-N-methylamine dihydrochloride], the negative logarithm of the Ki (pKi) is 7.41.

As to `CN[C@H]1CCN(c2cncc(C(F)(F)F)c2)C1` [Example 14, N-methyl-N-{(3S)-1-[5-(trifluoromethyl)-3-pyridinyl]pyrrolidinyl}amine hydrochloride], the pKi is 8.20.

`CN[C@@H]1CCN(c2cncc([N+](=O)[O-])c2)C1` [Example 32, N-methyl-N-[(3R)-1-(5-nitro-3-pyridinyl)pyrrolidinyl]amine fumarate] had a pKi of 6.71.

Turning to `C[C@H]1CCN(c2ccc(Cl)nc2)C[C@H]1N` (relative stereo) [Example 39, (cis) 1-(6-chloro-3-pyridinyl)-4-methyl-3-piperidinylamine hydrochloride], the pKi was 7.07.

The compound `C[C@@H]1CCN(c2ccc(Cl)nc2)C[C@H]1N` (relative stereo) [Example 40, (trans) 1-(6-chloro-3-pyridinyl)-4-methyl-3-piperidinylamine hydrochloride] showed a pKi of 8.27.

As for `Cc1cc(N2CC[C@@H](N)C2)cnc1F` [Example 27, (3R)-1-(6-fluoro-5-methyl-3-pyridinyl)pyrrolidinylamine hydrochloride], the pKi was 9.36.

For the compound `CN[C@H]1CCN(c2cnc(F)c(C)c2)C1` [Example 26, N-[(3S)-1-(6-fluoro-5-methyl-3-pyridinyl)pyrrolidinyl]-N-methylamine dihydrochloride], the pKi is 8.82.

`CN[C@H]1CCN(c2cncc([N+](=O)[O-])c2)C1` [Example 30, N-methyl-N-[(3S)-1-(5-nitro-3-pyridinyl)pyrrolidinyl]amine fumarate] gave a pKi of 7.92.

Staying with this assay, now noted: [3H]-cytisine 1.25 nM, whole rat brain membranes, 60 minutes at 4° C.; Ki from IC50 by Cheng and Prusoff correction; read-out: Average Ki.
Consider `CN[C@@H]1CCN(c2cncc(C(F)(F)F)c2)C1` [Example 12, N-methyl-N-{(3R)-1-[5-(trifluoromethyl)-3-pyridinyl]pyrrolidinyl}amine hydrochloride], for which the pKi was 6.94.

On to `NC1CCN(c2ccc(Cl)nc2)CC1` [Example 37, 1-(6-chloro-3-pyridinyl)-4-piperidinylamine 4-methylbenzenesulfonate], for which the pKi was 7.04.

As to `NC1CN(c2ccc(Cl)nc2)C1` [Example 50, 1-(6-chloro-3-pyridinyl)-3-azetidinylamine 4-methylbenzenesulfonate], the pKi was 6.76.

The values above are taken from patent publication US7332504B2, “Heterocyclic substituted aminoazacycles useful as central nervous system agents” (Abbott Laboratories, priority 1999, dated 2008).
